Values quoted from earlier work as cited in patent US20170051350A1, “METHOD AND SYSTEM TO PREDICT RESPONSE TO TREATMENTS FOR MENTAL DISORDERS” (Pathway Genomics Corporation, priority 2013, published 2017).
Read-outs that look alike come from different tables or passages of the source.

Key:
[1] = system: genes affecting efficacy; conditions: BDNF rs61888800; full wording: Depression may improve more than average; source PMID 20435227 Suppl Table 3a; cited from earlier work
[2] = system: CYP2D6; conditions: cited from earlier work
[3] = system: HLA genotypes; conditions: cited from earlier work
[4] = system: genes affecting adverse reactions; conditions: source PMID 20435227 Suppl Table 3c, cited from earlier work
[5] = CYP2D6 Intermediate Metabolizer

CNCCCN1c2ccccc2CCc2ccccc21 [Desipramine]
depression improvement (Category) [1]: Depression may improve
plasma concentrations (drug, or drug combined with its active metabolite) [2, 5]: Patient may have increased plasma concentrations of desipramine at standard doses (PMID 9049581, PMID 3816019,
plasma concentrations (drug, or drug combined with its active metabolite) ([2]; CYP2D6 Poor Metabolizer): Patient's genotype is associated with increased plasma concentrations of desipramine at standard doses (PMID
risk of adverse effects ([2]; CYP2D6 Poor Metabolizer): 9049581, PMID 3816019, PMID 10895986), which may increase risk of adverse effects.

Oc1ncnc2[nH]ncc12 [allopurinol]
drug eruption ([3]; HLA-Aw33, B17/Bw58): associated
severe cutaneous adverse reactions ([3]; HLA-B*5801): associated

Fc1ccc([C@@H]2CCNC[C@H]2COc2ccc3c(c2)OCO3)cc1 [Paroxetine]
risk of adverse effects [2, 5]: paroxetine, which may increase risk of sexual dysfunction (PMID 8880055, 12870705, 1531950).
risk of adverse effects ([2]; CYP2D6 Poor Metabolizer): Patient may have increased risk of drug-drug interactions [PMID 16476833] and sexual dysfunction [PMID 12870705].

O=C(CCCN1CCC(O)(c2ccc(Cl)cc2)CC1)c1ccc(F)cc1 [Haloperidol]
plasma concentrations (drug, or drug combined with its active metabolite) [2, 5]: Patient may have increased plasma concentrations of haloperidol (PMID 12386646, 10519444, 10096261).
plasma concentrations of reduced haloperidol ([2]; CYP2D6 Poor Metabolizer): fluphenazine, quetiapine, olanzapine or clozapine (PMID 21412232). Patient's genotype is associated with increased
risk of adverse effects ([2]; CYP2D6 Poor Metabolizer): Patient has increased risk of extrapyramidal symptoms and other adverse effects. Consider reducing the dose or
risk of extrapyramidal symptoms ([2]; CYP2D6 Ultrarapid metabolizer, in one study): In one study, individuals with this patient's CYP2D6 metabolizer status had a slightly increased risk of extrapyramidal

CN(C)CCC=C1c2ccccc2COc2ccccc21 [Doxepin]
plasma concentrations (drug, or drug combined with its active metabolite) [2, 5]: may have increased
risk of adverse effects [2, 5]: may increase the risk
plasma concentrations (drug, or drug combined with its active metabolite) ([2]; CYP2D6 Poor Metabolizer): increased
risk of adverse effects ([2]; CYP2D6 Poor Metabolizer): may increase the risk
plasma concentrations (drug, or drug combined with its active metabolite) ([2]; CYP2D6 Ultrarapid Metabolizer): Patient's genotype is associated with decreased plasma concentrations of doxepin. Consider alternative medications,

OCCN1CCN(CCCN2c3ccccc3Sc3ccc(Cl)cc32)CC1 [Perphenazine]
plasma concentrations (drug, or drug combined with its active metabolite) [2, 5]: Patient's genotype is associated with increased plasma concentrations of perphenazine (PMID 17429316, 8612387),
plasma concentrations (drug, or drug combined with its active metabolite) ([2]; CYP2D6 Poor Metabolizer): Patient's genotype is associated with increased plasma concentrations of perphenazine (PMID 17429316, 8612387,
risk of adverse effects ([2]; CYP2D6 Poor Metabolizer): 8689810), which may increase risk of adverse effects (FDA approved perphenazine drug label, PMID 9333110,
plasma concentrations (drug, or drug combined with its active metabolite) ([2]; CYP2D6 Ultrarapid Metabolizer): Patient's genotype is associated with decreased plasma concentrations of perphenazine.

CNCC[C@H](Oc1cccc2ccccc12)c1cccs1 [Duloxetine]
plasma concentrations (drug, or drug combined with its active metabolite) [2, 5]: Patient may have increased plasma concentrations of duloxetine at standard doses (PMID 17380590, 17713974).
plasma concentrations (drug, or drug combined with its active metabolite) ([2]; CYP2D6 Poor Metabolizer): Patient may have increased plasma concentrations of duloxetine at standard doses (PMID 17380590, 17713974).

Cc1cc2c(s1)Nc1ccccc1N=C2N1CCN(C)CC1 [Olanzapine]
Olanzapine, weight gain (Category) ([4]; ADRB3 rs4994, ADRB3:Trp64Arg): Less likely to gain weight
Olanzapine, weight gain (Category) ([4]; GNB3 rs5443, GNB3:825C > T): More likely to gain weight
Olanzapine, weight gain (Category) ([4]; HTR2A rs6313, HTR2A:T102C): More likely to gain weight
Olanzapine, weight gain (Category) ([4]; HTR2C rs6318, HTR2C:Cys23Ser): More likely to gain weight
Olanzapine, weight gain (Category) ([4]; HTR2C rs518147, HTR2C: −697G/C): Less likely to gain weight

CC(CN(C)C)CN1c2ccccc2CCc2ccccc21 (stereo not drawn) [Trimipramine]
plasma concentrations (drug, or drug combined with its active metabolite) [2, 5]: Patient's genotype is associated with increased plasma concentrations of trimipramine and desmethyltrimipramine
plasma concentrations (drug, or drug combined with its active metabolite) ([2]; CYP2D6 Poor Metabolizer): Patient's genotype is associated with increased plasma concentrations of trimipramine and desmethyltrimipramine
risk of adverse effects ([2]; CYP2D6 Poor Metabolizer): patient may be at increased risk of adverse effects, such as sedation (PMID 14646691).
plasma concentrations (drug, or drug combined with its active metabolite) ([2]; CYP2D6 Ultrarapid Metabolizer): decreased
risk of therapeutic failure ([2]; CYP2D6 Ultrarapid Metabolizer): increased risk

c1ccc([C@H]2CN3CCSC3=N2)cc1 [levamisole]
agranulocytosis ([3]; HLA-B27): associated

Cc1c(N(C)CS(=O)(=O)[O-])c(=O)n(-c2ccccc2)n1C.[Na+] [dipyrone]
agranulocytosis ([3]; HLA-A24, B7, DQwI): associated

NNc1nncc2ccccc12 [hydralazine]
SLE ([3]; HLA-DR4): associated

COc1ccc(C(CN(C)C)C2(O)CCCCC2)cc1 (stereo not drawn) [Venlafaxine]
risk of adverse effects [2, 5]: 10233212, 10877013), which may increase risk of adverse effects (PMID 17803873). Consider alternative medications,
levels of the active metabolite, O-desmethylvenlafaxine, at standard doses ([2]; CYP2D6 Poor Metabolizer): decreased
risk of adverse effects ([2]; CYP2D6 Poor Metabolizer): 18214456, 19593180, 21288052); therefore, the patient may have an increased risk of adverse effects at standard
plasma levels of the active metabolite, O-desmethylvenlafaxine, at standard doses ([2]; CYP2D6 Ultrarapid Metabolizer): Patient's genotype is associated with increased plasma levels of the active metabolite, O-desmethylvenlafaxine, and

CN(C)CCC=C1c2ccccc2CCc2ccccc21 [Amitriptyline]
plasma concentrations (drug, or drug combined with its active metabolite) [2, 5]: may have increased
risk of adverse effects [2, 5]: increased risk
plasma concentrations (drug, or drug combined with its active metabolite) ([2]; CYP2D6 Poor Metabolizer): increased plasma
risk of adverse effects ([2]; CYP2D6 Poor Metabolizer): increased risk

CNCCC(Oc1ccc(C(F)(F)F)cc1)c1ccccc1 (stereo not drawn) [Fluoxetine]
depression improvement (Category) [1]: Depression may improve

CC(=O)/N=c1/sc(S(N)(=O)=O)nn1C [methazolamide]
SJS ([3]; HLA-B59): associated

OCCN1CCN(CC/C=C2/c3ccccc3Sc3ccc(Cl)cc32)CC1 [Zuclopenthixol]
plasma concentrations (drug, or drug combined with its active metabolite) [2, 5]: Patient may have increased plasma concentrations of zuclopenthixol (PMID 1927573, 8946657, 12107620, 8612387,
risk of adverse effects [2, 5]: 20946203), which may increase risk of adverse effects (PMID 20175668, 12107620). Consider reducing the dose by
plasma concentrations (drug, or drug combined with its active metabolite) ([2]; CYP2D6 Poor Metabolizer): Patient's genotype is associated with increased plasma concentrations of zuclopenthixol (PMID 1927573, 8946657,
risk of adverse effects ([2]; CYP2D6 Poor Metabolizer): 12107620, 8612387, 20946203), which may increase risk of adverse effects (PMID 20175668, 12107620). Consider

CN1CCN2c3ncccc3Cc3ccccc3C2C1 (stereo not drawn) [Mirtazapine]
plasma concentrations (drug, or drug combined with its active metabolite) [2, 5]: Patient may have increased plasma concentrations of mirtazapine, though it is unclear if increased plasma
plasma concentrations (drug, or drug combined with its active metabolite) ([2]; CYP2D6 Poor Metabolizer): Patient may have increased plasma concentrations of mirtazapine at standard doses, though it is unclear if increased

CC(C)(S)[C@@H](N)C(=O)O [penicillamine]
toxicity ([3]; HLA-DR3): associated

Nc1nc(NC2CC2)c2ncn([C@H]3C=C[C@@H](CO)C3)c2n1 [abacavir]
hypersensitivity ([3]; HLA-B*5701): associated
